Assay results from article PMC12040169 (PLOS Biology, 2025).

experiment: in vitro; conditions: human, hela cells, % viability

Structure (SMILES)	viability at 28.5 h, 10 µM [%]
Cc1cc(NC(=O)COc2ccccc2)nc2c1c(=O)oc1ccccc12 [CBK287436]	99.8
CC1=C[C@@H](CN2CCC(O)CC2)[C@H](C(C)C)C[C@H]1Cc1nnc(-c2ccccc2)o1 [CBK289220]	97.2
c1coc(-c2nnc(Nc3nc4cc5c(cc4s3)OCO5)o2)c1 [CBK287492]	89.8
C=CCn1c(Cc2csc(NC(=O)c3ccc([N+](=O)[O-])c(C)c3)n2)n[nH]c1=S [CBK295323]	87
O=C(NCc1cccs1)c1cc(S(=O)(=O)N2CCOCC2)c(Cl)cc1Cl [CBK269657]	97.3
COc1ccc(Nc2nc(N)nc(CN3CC(C)CC(C)C3)n2)cc1 (stereo not shown) [CBK288154]	99.2
CCn1c(SCC(=O)Nc2cc(C)ccc2F)nnc1-c1ccccc1O [CBK269532]	91.4
CCn1cc(-c2cncn2CC(C)n2nc(C)cc2C)cn1 (stereo not shown) [CBK281775]	87.1
COc1cc(/C=N/NC(N)=O)ccc1OC(=O)c1sc2ccccc2c1Cl [CBK262265]	85
O=C(Nc1ccccc1C(=O)O)c1cccc(NC(=O)c2ccco2)c1 [CBK299774]	88.1
c1ccc(CN2CCN(c3cncc(-c4cccs4)n3)CC2)nc1 [CBK065734]	98.1
CC(C)OC(=O)c1ccc(NC(=O)c2csc3c2CCCC3)cc1 [CBK058649]	106
O=C(/C=C/c1ccc(Cl)cc1Cl)NC(=S)Nc1ccccc1F [CBK264332]	108
CC1(NC(=O)Cn2c(C(F)(F)F)nc3ccccc32)CCC1 [CBK281606]	82.2
CC1CCCC(C)N1S(=O)(=O)c1ccc(NC(=O)CCn2cnc3ccccc3c2=O)cc1 (stereo not shown) [CBK267643]	95.5
CCNC(=O)Nc1nn(Cc2ccc(OC)cc2)c2ccccc12 [CBK105837]	94.6
COc1cc2[nH]c(=O)c(C(=O)NCCc3ccc(Cl)cc3)c(O)c2cc1OC [CBK159986]	91.3
O=[N+]([O-])c1ccc(CN2CCN(Cc3ccc4c(c3)OCO4)CC2)o1 [CBK074557]	88.7
O=C(O)c1ccc(/C=N/c2ccc(S(=O)(=O)c3ccc(/N=C/c4ccc(C(=O)O)cc4)cc3)cc2)cc1 [CBK262038]	92.4
CCOC(=O)c1[nH]c2ccccc2c1NC(=O)c1ccc(Cl)cc1Br [CBK160140]	96.7
CCOC(=O)N1CCN(c2cccc3[nH]c(C(=O)O)cc23)CC1 [CBK083477]	93.9
O=C(c1c(F)cccc1Cl)N1CCN(Cc2ccc3c(c2)OCO3)CC1 [CBK074724]	93.9

Structure (SMILES)	viability at 28.5 h, 10 µM [%]
CC(=O)N(C)c1nc(-c2ccccc2)ccc1C(=O)NCc1ccco1 [CBK106334]	99.3
NC(=O)c1c(NC(=O)CSC2=NCCS2)sc2c1CCCC2 [CBK269989]	87.9
O=C(O)c1cccc(NC(=O)c2ccc(S(=O)(=O)N3CCCCC3)cc2)c1 [CBK265185]	86.1
Cc1ccc(NC(=O)c2ccccc2NS(=O)(=O)c2ccc(C(C)C)cc2)cc1 [CBK113800]	77.8
COc1cc(NC(=O)c2cc([N+](=O)[O-])ccc2N2CCN(C)CC2)c2ncccc2c1 [CBK263034]	90
COc1cccc(NC(=O)CCS(=O)(=O)c2ccccc2)c1 [CBK270150]	91.9
CC1(C)[C@H](Cc2cc(CC3CCCCC3)on2)C[C@@H]1NC(=O)N1CCOCC1 [CBK289258]	98.6
COc1cc([N+](=O)[O-])c2[nH]c(C(=O)O)c(CCNC(C)=O)c2c1 [CBK260895]	105
O=C(NCCCN1CCOCC1)c1cc2cc([N+](=O)[O-])ccc2oc1=O [CBK263441]	90.9
CCOC(=O)Nc1ccc2c(c1)N(C(=O)CN1CCN(C)CC1)c1ccccc1CC2 [CBK278194C]	88.7
Cc1noc(C)c1C(=O)N(C)Cc1cc(-c2ccncc2)no1 [CBK306677]	102
O=C(Nc1ccc(N2CCNCC2)c2ccccc12)c1coc2c1C(=O)CCC2 [CBK038946T]	81.5
COc1ccc(CCNC(=O)c2ccn[nH]2)cc1OC [CBK288234]	92.2
CCc1nn(CC(=O)N(CC)CC)c(=O)c2cc3sccc3n12 [CBK284054]	77.8
Nc1nc(=O)n([C@@H]2O[C@H](CO)[C@H](O)C2O)cc1CO (stereo partly shown) [CBK201160]	92.7
CN(C)CCSc1nc2cc(Cl)ccc2o1 [CBK266337C]	96.6
O=C(c1ccc(F)cc1)C1CCN(Cc2cc(=O)[nH]c(=O)[nH]2)CC1 [CBK149132]	91.8
COc1ccc(C(=O)Nc2cnn(CCCC(=O)O)c2)cc1 [CBK270052]	89.7
O=C(NCC1COc2ccccc2O1)c1cc(-c2ccc(Cl)cc2)cnc1N1CCOCC1 (stereo not shown) [CBK076286]	94.9
CC(C)c1ccc(NC(=O)C2=NNC(=O)CC2)cc1 [CBK057421]	96.5
Cc1ccccc1NS(=O)(=O)c1cc(OCC(N)=O)c(C)cc1Cl [CBK266443]	85.9
C(=C\c1nccnc1OCCn1cccc1)/c1ccccc1 [CBK106884]	94

Structure (SMILES)	viability at 28.5 h, 10 µM [%]
CC(=O)N1CCC(c2nc(C3CCCC3)no2)C1 (stereo not shown) [CBK285452]	104
Cc1ccncc1C(=O)N1CCc2ccccc21 [CBK200400]	109
Cc1ccc(SCCN2CCNCC2)cc1 [CBK266045G]	99.6
O=c1c(N2CCCNCC2)nccn1CCOc1ccc(Oc2ccccc2)cc1 [CBK028615T]	101
O=C(O)COc1ccc(NC(=O)CSCc2ccc(Cl)cc2Cl)cc1 [CBK131700]	89.2
COc1ccc(Oc2nccnc2N2CCN(CCCC#N)CC2)cc1OC [CBK083056T]	95.5
COc1ccc(C)cc1-n1ccc(C(=O)NC2CCSCC2)n1 [CBK305502]	94.6
CN(C)C(=O)c1cc(Br)cnc1NCc1ccc2c(c1)OCO2 [CBK076293]	110
COc1ccc(NC(=O)/C(=C\c2ccc3c(c2)OCO3)NC(=O)c2ccco2)cc1 [CBK263607]	86.3
Cc1nc(Nc2ccc(Cl)cc2)nc(OC2CCNCC2)n1 [CBK024848]	90.5
O=C(NCCc1c[nH]cn1)N1CCN(c2ccc(F)cc2)CC1 [CBK156394]	85.1
COc1cccc(OC)c1-c1cn2ccnc2c(N(C)CCN(C)C)n1 [CBK066398]	97.3
CCN(CC)c1ccc(NC(=O)c2cccc(OC)c2OC)c(C)c1 [CBK097801]	92.2
OCCN(Cc1cccnc1)Cc1cccn1-c1ccccc1F [CBK283019]	92.2
CCN(C(C)COC)S(=O)(=O)c1ccc(-n2ncc(Cl)c(Cl)c2=O)cc1 (stereo not shown) [CBK305662]	37
Cc1[nH]c2cccc(C(=O)N3CCOC(C)(C(=O)NC4CCCC4)C3)c2c1C (stereo not shown) [CBK285800]	87.3
CCC1CN(c2cc(CO)c(F)cn2)CC2(CCOC2)O1 (stereo not shown) [CBK304757]	92.9
CCc1nc2c(OCC(=O)N3CCOCC3)cccn2c1N(C)C(=O)c1ccco1 [CBK147436]	92
Cc1cc(C)c2c(n1)sc1c(N3CCC(C(=O)O)CC3)ncnc12 [CBK300512]	83.1
Cc1ccc(N(CC(=O)N/N=C2\C(=O)Nc3ccccc32)S(=O)(=O)c2ccccc2)cc1 [CBK262169]	105
COC1CCCC(C(=O)N2CCC(c3onc4c3CCCC4)CC2)C1 (stereo not shown) [CBK284598]	94.3
CS(=O)(=O)c1ccc(-c2c[nH]c([C@@H]3COCCN3Cc3ccccc3)n2)cc1 [CBK289300]	83.1

Structure (SMILES)	viability at 28.5 h, 10 µM [%]
Nc1nc2c(O)cccc2s1 [CBK003892B]	85.6
Cc1cccc(-c2ncc(NC(=O)Cc3ccc(-c4ccccc4)cc3)nc2-c2ccc(N(C)C)cc2)c1 [CBK037567]	98.1
Cc1ccc(S(=O)(=O)Nc2cc(Sc3nc(C)cc(C)n3)c(O)c3ccccc23)cc1 [CBK263313]	79
Cc1cc(C[C@@H]2COC[C@H]2NCCc2ccccc2)on1 [CBK284882]	95.5
CSCCCNC(=O)N(CCC#N)C1CCCCC1 [CBK156348]	104
O=C(CO)N1CC2(CCN(CCO)CC2)c2ccccc21 [CBK131507]	79.7
COc1cccc2c3c([nH]c12)C1(CCCN(C/C=C\c2ccccc2)C1)NCC3 (stereo not shown) [CBK040138]	98.3
Cc1onc(-c2ccccc2)c1C(=O)Nc1ccc(N2CCNCC2)c2ccccc12 [CBK038942T]	87
N=c1sc(Cc2cc(Cl)ccc2Cl)cn1CC(=O)c1ccccc1 [CBK263584B]	89.6
O=S(=O)(Nc1cccc(OC(F)(F)F)c1)c1ccc(N2CCNCC2)c2ccccc12 [CBK003935C]	111
CSCCC(=O)NCc1ccc(-c2csnn2)cc1 [CBK149304]	83.2
COc1ccccc1NC(=O)NC(=O)C1CCN(C(C)=O)CC1 [CBK034853]	119
CCOC(=O)c1cccc(NS(=O)(=O)c2ccc(-c3ccccc3)cc2)c1 [CBK034341]	92.8
c1csc(-c2cc3cccnc3n2CCN2CCOCC2)c1 [CBK282718]	80.5
COc1ccc(CCNc2nc3c([nH]2)c(=O)n(C)c(=O)n3C)cc1 [CBK269897]	85.5
O=C1Nc2cc(Cl)ccc2C2=NCCCN12 [CBK284385]	81.5
Cn1ncc2c1CCCC2NC(=O)N(CCO)Cc1ccccc1 (stereo not shown) [CBK306293]	86.1
CSC1CCC(N(C)C(=O)NCCc2cn3cccc(C)c3n2)C1 (stereo not shown) [CBK305324]	84.5
COC(=O)C1CCN(C(=O)c2ccc(Oc3cccc(Br)c3)nc2)CC1 [CBK304235]	103
NCCSC1CC(=O)N(Cc2cccs2)C1=O (stereo not shown) [CBK269047C]	92.3
COCc1ccc(CN2CCC3(CCc4ccccc4C(=O)N3)C2)o1 (stereo not shown) [CBK284651]	94.3

same assay, conditions: human, hela cells, % viability, bulk resorufin, single well

Structure (SMILES)	viability at 28.5 h, 10 µM [%]
CC(=O)N1CCC2(CC1)OCc1cc(-c3c(C)noc3C)ccc1O2 [CBK060896]	94.4
